Data published in patent publication US8471005B2 (Cephalon, Inc., priority 2008, dated 2013).
Where two headings read alike, the source gives them in different places.

Columns and labels:
ALK = target: T1, ALK (Homo sapiens, UniProt Q9UM73); assay: ALK Kinase Assay (ELISA/TRF, PLC-γ substrate); assay type: biochemical; details: read-out: ALK Potency
T1 construct: host or cells: baculovirus expression system
Summary of the method: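 Read-out is time-resolved fluorescence from a Eu-N1-labeled PT66 antibody that binds phosphorylated PLC-γ, the substrate coated at 10 μg/mL in TBS. ALK at 30 ng/ml starts the reaction, which runs 15 minutes at 37° C.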

JAK2 = target: T2, JAK2 (Homo sapiens, UniProt O60674); assay: Recombinant Human JAK2 Kinase Assay (TRF); assay type: biochemical; details: read-out: JAK2 Potency
T2 construct: host or cells: baculovirus expression system
Summary of the method: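 Baculovirus-expressed JAK2 (15 ng/ml) phosphorylated a biotinylated 15-mer peptide captured on Neutravidin-coated plates, in 20 mM HEPES pH 7.2 with 0.2 μM ATP, 1 mM MnCl2, 0.1% BSA and 2.5% DMSO. Reaction ran 20 min at room temperature; phosphopeptide was detected by time-resolved fluorescence with Eu-N1-labelled PY100 antibody.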

[1] = ALK kinase inhibition, 1 μM ATP
[2] = JAK2 kinase inhibition, 0.2 μM ATP

T2 sequence (O60674 whole entry): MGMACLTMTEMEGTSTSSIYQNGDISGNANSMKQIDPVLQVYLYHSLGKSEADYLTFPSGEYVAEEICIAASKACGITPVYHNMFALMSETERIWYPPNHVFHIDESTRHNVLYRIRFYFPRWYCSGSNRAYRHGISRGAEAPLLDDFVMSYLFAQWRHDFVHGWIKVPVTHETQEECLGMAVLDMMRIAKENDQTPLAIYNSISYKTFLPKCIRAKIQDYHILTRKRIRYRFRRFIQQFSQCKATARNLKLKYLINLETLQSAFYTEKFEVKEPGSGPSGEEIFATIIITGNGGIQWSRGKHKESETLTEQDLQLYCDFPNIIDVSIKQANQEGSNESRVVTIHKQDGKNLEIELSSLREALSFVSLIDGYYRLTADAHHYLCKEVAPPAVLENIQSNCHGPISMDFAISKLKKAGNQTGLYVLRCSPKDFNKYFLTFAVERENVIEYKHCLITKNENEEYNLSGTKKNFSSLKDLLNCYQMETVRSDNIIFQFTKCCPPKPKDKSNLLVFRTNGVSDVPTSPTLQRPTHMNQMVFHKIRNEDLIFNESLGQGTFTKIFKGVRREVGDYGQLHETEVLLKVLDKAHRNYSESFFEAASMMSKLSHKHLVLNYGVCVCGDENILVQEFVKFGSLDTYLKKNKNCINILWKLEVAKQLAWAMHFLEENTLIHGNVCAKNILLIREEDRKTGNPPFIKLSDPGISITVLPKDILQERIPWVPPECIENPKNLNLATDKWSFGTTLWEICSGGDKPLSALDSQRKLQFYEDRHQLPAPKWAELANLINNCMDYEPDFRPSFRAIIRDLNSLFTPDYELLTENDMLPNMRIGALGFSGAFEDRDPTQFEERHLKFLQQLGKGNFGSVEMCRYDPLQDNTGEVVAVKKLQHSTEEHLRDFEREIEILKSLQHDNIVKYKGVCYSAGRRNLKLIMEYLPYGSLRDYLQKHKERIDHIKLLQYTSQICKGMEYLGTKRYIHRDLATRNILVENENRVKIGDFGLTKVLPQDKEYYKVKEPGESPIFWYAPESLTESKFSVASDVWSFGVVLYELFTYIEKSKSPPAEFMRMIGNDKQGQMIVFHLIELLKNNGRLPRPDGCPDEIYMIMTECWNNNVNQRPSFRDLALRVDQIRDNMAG
T1 sequence (Q9UM73 19-1620): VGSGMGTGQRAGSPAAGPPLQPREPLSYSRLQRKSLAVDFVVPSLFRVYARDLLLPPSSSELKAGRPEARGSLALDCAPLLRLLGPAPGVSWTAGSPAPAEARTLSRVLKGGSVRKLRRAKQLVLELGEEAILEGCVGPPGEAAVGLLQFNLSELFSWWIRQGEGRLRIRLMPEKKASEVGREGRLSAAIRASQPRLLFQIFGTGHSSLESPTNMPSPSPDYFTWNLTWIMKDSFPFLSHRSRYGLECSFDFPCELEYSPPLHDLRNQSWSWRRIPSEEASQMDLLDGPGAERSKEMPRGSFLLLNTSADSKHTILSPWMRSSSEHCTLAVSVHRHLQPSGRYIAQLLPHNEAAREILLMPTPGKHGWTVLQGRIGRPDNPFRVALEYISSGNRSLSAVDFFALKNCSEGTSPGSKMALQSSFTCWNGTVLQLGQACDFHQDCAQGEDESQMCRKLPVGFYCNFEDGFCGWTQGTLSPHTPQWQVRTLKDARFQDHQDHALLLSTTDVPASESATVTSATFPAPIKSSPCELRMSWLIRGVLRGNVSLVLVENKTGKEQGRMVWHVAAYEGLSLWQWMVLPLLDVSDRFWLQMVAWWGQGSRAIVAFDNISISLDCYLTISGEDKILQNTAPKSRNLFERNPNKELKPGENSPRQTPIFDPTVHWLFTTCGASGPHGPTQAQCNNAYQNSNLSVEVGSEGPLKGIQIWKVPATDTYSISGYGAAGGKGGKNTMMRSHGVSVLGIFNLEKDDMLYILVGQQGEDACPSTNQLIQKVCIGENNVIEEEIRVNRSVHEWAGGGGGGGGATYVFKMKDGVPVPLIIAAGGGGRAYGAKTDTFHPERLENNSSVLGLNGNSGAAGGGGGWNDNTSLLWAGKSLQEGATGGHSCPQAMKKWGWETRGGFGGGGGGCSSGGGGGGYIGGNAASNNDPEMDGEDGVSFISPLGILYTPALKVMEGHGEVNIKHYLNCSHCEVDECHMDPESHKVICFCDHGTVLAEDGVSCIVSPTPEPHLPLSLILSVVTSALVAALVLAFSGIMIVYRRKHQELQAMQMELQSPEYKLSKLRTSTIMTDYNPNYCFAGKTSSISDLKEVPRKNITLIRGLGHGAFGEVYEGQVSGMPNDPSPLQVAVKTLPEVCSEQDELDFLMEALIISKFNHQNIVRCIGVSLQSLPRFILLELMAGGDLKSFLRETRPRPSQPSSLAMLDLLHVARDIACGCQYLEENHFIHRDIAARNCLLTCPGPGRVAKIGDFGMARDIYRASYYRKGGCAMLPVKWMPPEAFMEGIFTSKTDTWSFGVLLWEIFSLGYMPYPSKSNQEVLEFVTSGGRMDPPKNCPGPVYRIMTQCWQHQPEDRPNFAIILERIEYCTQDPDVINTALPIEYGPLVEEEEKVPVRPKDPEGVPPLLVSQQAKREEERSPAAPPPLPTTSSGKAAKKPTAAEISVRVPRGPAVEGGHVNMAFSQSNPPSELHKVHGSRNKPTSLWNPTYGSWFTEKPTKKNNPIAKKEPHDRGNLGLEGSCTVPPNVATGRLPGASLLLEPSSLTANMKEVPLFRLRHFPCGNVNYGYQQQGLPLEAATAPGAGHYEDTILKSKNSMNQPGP

Structure (SMILES) | IC50 (ALK; ALK Kinase Inhibition) | IC50 (JAK2; JAK2 Kinase Inhibition) | IC50 (ALK; [1]) | IC50 (JAK2; [2])
COc1cc(N2CCC(N3CCOCC3)CC2)ccc1Nc1ncc2ccc(-c3ccccc3OC(F)(F)F)n2n1 [Example 1455, [2-Methoxy-4-(4-morpholin-4-yl-piperidin-1-yl)-phenyl]-[7-(2-trifluoromethoxy-phenyl)-pyrrolo[2,1-f][1,2,4]triazin-2-yl]-amine] | < 100 nM | < 100 nM |  | 
CC(=O)Nc1cc(Nc2ncc3ccc(-c4cccc(Cl)c4)n3n2)ccc1C(C)C [Example 303, N-{5-[7-(3-Chloro-phenyl)-pyrrolo[2,1-f][1,2,4]triazin-2-ylamino]-2-isopropyl-phenyl}-acetamide] | 1000 to 10000 nM | < 100 nM |  | 
COc1cc(C2CCN(C[C@@H](O)CO)CC2)c(F)cc1Nc1ncc2ccc(-c3ccccc3OC)n2n1 [Example 550, (R)-3-(4-{2-Fluoro-5-methoxy-4-[7-(2-methoxy-phenyl)-pyrrolo[2,1-f][1,2,4]triazin-2-ylamino]-phenyl}-piperidin-1-yl)-propane-1,2-diol] |  |  | < 100 nM | 100 to 1000 nM
COc1ccc(-c2ccc3cnc(Nc4ccc5nc(CN6CCOCC6)[nH]c5c4)nn23)cn1 [Example 1513, [7-(6-Methoxy-pyridin-3-yl)-pyrrolo[2,1-f][1,2,4]triazin-2-yl]-(2-morpholin-4-ylmethyl-3H-benzimidazol-5-yl)-amine] | 1000 to 10000 nM | < 100 nM |  | 
CN(Cc1cccc(-c2ccc3cnc(Nc4ccc5c(c4)NC(=O)C5(C)C)nn23)c1)S(C)(=O)=O [Example 1054, N-{3-[2-(3,3-Dimethyl-2-oxo-2,3-dihydro-1H-indol-6-ylamino)-pyrrolo[2,1-f][1,2,4]triazin-7-yl]-benzyl}-N-methyl-methanesulfonamide] |  |  | > 10000 nM | < 100 nM
CN1CCN(c2ccc(Nc3ncc4ccc(C5CCCCC5)n4n3)cc2)CC1 [Example 123, (7-Cyclohexyl-pyrrolo[2,1-f][1,2,4]triazin-2-yl)-[4-(4-methyl-piperazin-1-yl)-phenyl]-amine] | 100 to 1000 nM | < 100 nM |  | 
CS(=O)(=O)c1ccc(-c2ccc3cnc(Nc4ccc(N5CCN(CCO)CC5)cc4)nn23)cc1 [Example 88, 2-(4-{4-[7-(4-Methanesulfonyl-phenyl)-pyrrolo[2,1-f][1,2,4]triazin-2-ylamino]-phenyl}-piperazin-1-yl)-ethanol] | 100 to 1000 nM | < 100 nM |  | 
CC(=O)N1CCc2ccc(Nc3ncc4ccc(-c5cccc(S(=O)(=O)N6CC[C@H](O)C6)c5)n4n3)cc21 [Example 885, 1-(6-{7-[3-((S)-3-Hydroxy-pyrrolidine-1-sulfonyl)-phenyl]-pyrrolo[2,1-f][1,2,4]triazin-2-ylamino}-2,3-dihydro-indol-1-yl)-ethanone] |  |  | 1000 to 10000 nM | < 100 nM
CN1CCOc2ccc(Nc3ncc4ccc(-c5ccccc5N(C)S(C)(=O)=O)n4n3)cc21 [Example 641, N-Methyl-N-{2-[2-(4-methyl-3,4-dihydro-2H-benzo[1,4]oxazin-6-ylamino)-pyrrolo[2,1-f][1,2,4]triazin-7-yl]-phenyl}methanesulfonamide] |  |  | 100 to 1000 nM | < 100 nM
COc1cccc(-c2ccn3nc(Nc4ccc(N5CCN(C)CC5)cc4)ncc23)c1 [Example 725, [5-(3-Methoxy-phenyl)-pyrrolo[2,1-f][1,2,4]triazin-2-yl]-[4-(4-methyl-piperazin-1-yl)-phenyl]-amine] |  |  | > 10000 nM | > 10000 nM
CNC(=O)c1cccc(Nc2ncc3ccc(-c4cnn(C)c4)n3n2)c1 [Example 965, N-Methyl-3-[7-(1-methyl-1H-pyrazol-4-yl)-pyrrolo[2,1-f][1,2,4]triazin-2-ylamino]-benzamide] |  |  | 1000 to 10000 nM | < 100 nM
COc1cc(C2CCNCC2)ccc1Nc1ncc2c(C)cc(-c3ccccc3N(C)S(C)(=O)=O)n2n1 [Example 1263, N-{2-[2-(2-Methoxy-4-piperidin-4-yl-phenylamino)-5-methyl-pyrrolo[2,1-f][1,2,4]triazin-7-yl]-phenyl}-N-methyl-methanesulfonamide] |  |  | < 100 nM | 100 to 1000 nM
COc1ccc(Cl)cc1-c1ccc2cnc(Nc3ccc(N4CCOCC4)cc3)nn12 [Example 3, [7-(5-Chloro-2-methoxy-phenyl)-pyrrolo[2,1-f][1,2,4]triazin-2-yl]-(4-morpholin-4-yl-phenyl)-amine] | 100 to 1000 nM | < 100 nM |  | 
CSc1cc(N2CCN(C[C@H](C)O)CC2)c(F)cc1Nc1ncc2ccc(-c3ccccc3N(C)S(C)(=O)=O)n2n1 [Example 1483, N-[2-(2-{5-Fluoro-4-[4-((S)-2-hydroxy-propyl)-piperazin-1-yl]-2-methylsulfanyl-phenylamino}-pyrrolo[2,1-f][1,2,4]triazin-7-yl)-phenyl]-N-methyl-methanesulfonamide] | < 100 nM | 1000 to 10000 nM |  | 
CC(C)S(=O)(=O)c1cccc(-c2ccc3cnc(Nc4ccc(C5CCN(CC(N)=O)CC5)cc4)nn23)c1 [Example 570, 2-[4-(4-{7-[3-(Propane-2-sulfonyl)-phenyl]-pyrrolo[2,1-f][1,2,4]triazin-2-ylamino}-phenyl)-piperidin-1-yl]-acetamide] |  |  | 100 to 1000 nM | < 100 nM
COc1ccc(Nc2ncc3ccc(-c4ccccc4N(C)S(C)(=O)=O)n3n2)cc1N1CCCC1=O [Example 1370, N-(2-{2-[4-Methoxy-3-(2-oxo-pyrrolidin-1-yl)-phenylamino]-pyrrolo[2,1-f][1,2,4]triazin-7-yl}-phenyl)-N-methyl-methanesulfonamide] | 100 to 1000 nM | < 100 nM |  | 
CNC(=O)CN1CCC(c2ccc(Nc3ncc4ccc(-c5ccccc5N(C)S(C)(=O)=O)n4n3)c(OC)c2)CC1 [Example 870, 2-[4-(4-{7-[2-(Methanesulfonyl-methyl-amino)-phenyl]-pyrrolo[2,1-f][1,2,4]triazin-2-ylamino}-3-methoxy-phenyl)-piperidin-1-yl]-N-methyl-acetamide] |  |  | < 100 nM | 100 to 1000 nM
COc1cc(C2CCN(C[C@H](O)CO)CC2)ccc1Nc1ncc2ccc(-c3cccc(S(=O)(=O)NC(C)(C)C)c3)n2n1 [Example 695, N-tert-Butyl-3-(2-{4-[1-((S)-2,3-dihydroxy-propyl)-piperidin-4-yl]-2-methoxy-phenylamino}-pyrrolo[2,1-f][1,2,4]triazin-7-yl)-benzenesulfonamide] |  |  | < 100 nM | 100 to 1000 nM
CN1C(=O)Cc2cc(Nc3ncc4ccc(Nc5cccnc5N(C)S(C)(=O)=O)n4n3)ccc21 [Example 387, N-Methyl-N-{3-[2-(1-methyl-2-oxo-2,3-dihydro-1H-indol-5-ylamino)-pyrrolo[2,1-f][1,2,4]triazin-7-ylamino]-pyridin-2-yl}-methanesulfonamide] | 1000 to 10000 nM | < 100 nM |  | 
COc1cc(C2=CCNCC2)ccc1Nc1ncc2ccc(-c3ccccc3N(C)S(C)(=O)=O)n2n1 [Example 742, N-(2-{2-[2-Methoxy-4-(1,2,3,6-tetrahydro-pyridin-4-yl)-phenylamino]-pyrrolo[2,1-f][1,2,4]triazin-7-yl}-phenyl)-N-methyl-methanesulfonamide] |  |  | < 100 nM | 100 to 1000 nM
COc1ccc(Cl)cc1-c1ccc2cnc(Nc3cccc(N4CCC(N5CCOCC5)CC4)c3)nn12 [Example 196, [7-(5-Chloro-2-methoxy-phenyl)-pyrrolo[2,1-f][1,2,4]triazin-2-yl]-[3-(4-morpholin-4-yl-piperidin-1-yl)-phenyl]-amine] | < 100 nM | < 100 nM |  | 
